Test: xn = mol fraction of the nth substance listed
Conditions: Liquid, Vibrating tube method

CC(C)=O [acetone] + CCCCCCC
Conditions | mass density [kg/m3]
377.4 K, 104790 kPa, x1 = 0.492 | 730.51
377.4 K, 104810 kPa, x1 = 0.801 | 762.89
377.4 K, 109780 kPa, x1 = 0.492 | 733.39
377.4 K, 109790 kPa, x1 = 0.801 | 765.94
377.4 K, 109820 kPa, x1 = 0.7024 | 753.96
377.4 K, 109850 kPa, x1 = 0.611 | 743.53
377.4 K, 114760 kPa, x1 = 0.801 | 768.91
377.4 K, 114820 kPa, x1 = 0.7024 | 756.89
377.4 K, 114850 kPa, x1 = 0.611 | 746.4
377.4 K, 119800 kPa, x1 = 0.7024 | 759.71
377.4 K, 119830 kPa, x1 = 0.492 | 738.96
377.4 K, 119830 kPa, x1 = 0.801 | 771.84
377.4 K, 124810 kPa, x1 = 0.7024 | 762.48
377.4 K, 124850 kPa, x1 = 0.492 | 741.61
377.4 K, 124850 kPa, x1 = 0.801 | 774.66
377.4 K, 129810 kPa, x1 = 0.7024 | 765.17
377.4 K, 129840 kPa, x1 = 0.611 | 754.52
377.4 K, 129840 kPa, x1 = 0.801 | 777.42
377.4 K, 129850 kPa, x1 = 0.492 | 744.18
377.41 K, 1430 kPa, x1 = 0.4 | 667.78
377.41 K, 1430 kPa, x1 = 0.8992 | 667.78
377.41 K, 5010 kPa, x1 = 0.4 | 675.34
377.41 K, 5010 kPa, x1 = 0.8992 | 675.34
377.41 K, 10000 kPa, x1 = 0.4 | 684.66
377.41 K, 10000 kPa, x1 = 0.8992 | 684.66
377.41 K, 14980 kPa, x1 = 0.4 | 692.99
377.41 K, 14980 kPa, x1 = 0.8992 | 692.99
377.41 K, 19960 kPa, x1 = 0.4 | 700.52
377.41 K, 19960 kPa, x1 = 0.8992 | 700.52
377.41 K, 24950 kPa, x1 = 0.4 | 707.43
377.41 K, 24950 kPa, x1 = 0.8992 | 707.43
377.41 K, 29840 kPa, x1 = 0.801 | 699.24
377.41 K, 29860 kPa, x1 = 0.492 | 670
377.41 K, 29930 kPa, x1 = 0.4 | 713.82
377.41 K, 29930 kPa, x1 = 0.8992 | 713.82
377.41 K, 34850 kPa, x1 = 0.801 | 705.2
377.41 K, 34930 kPa, x1 = 0.4 | 719.78
377.41 K, 34930 kPa, x1 = 0.8992 | 719.78
377.41 K, 39850 kPa, x1 = 0.801 | 710.77
377.41 K, 39910 kPa, x1 = 0.4 | 725.35
377.41 K, 39910 kPa, x1 = 0.8992 | 725.35
377.41 K, 44860 kPa, x1 = 0.801 | 716
377.41 K, 44890 kPa, x1 = 0.4 | 730.6
377.41 K, 44890 kPa, x1 = 0.8992 | 730.6
377.41 K, 49850 kPa, x1 = 0.801 | 720.93
377.41 K, 49880 kPa, x1 = 0.4 | 735.58
377.41 K, 49880 kPa, x1 = 0.8992 | 735.58
377.41 K, 54850 kPa, x1 = 0.492 | 695.17
377.41 K, 54860 kPa, x1 = 0.4 | 740.29
377.41 K, 54860 kPa, x1 = 0.8992 | 740.29
377.41 K, 59860 kPa, x1 = 0.4 | 744.79
377.41 K, 59860 kPa, x1 = 0.8992 | 744.79
377.41 K, 64820 kPa, x1 = 0.492 | 703.44
377.41 K, 64830 kPa, x1 = 0.4 | 749.06
377.41 K, 64830 kPa, x1 = 0.8992 | 749.06
377.41 K, 69810 kPa, x1 = 0.4 | 753.19
377.41 K, 69810 kPa, x1 = 0.8992 | 753.19
377.41 K, 74900 kPa, x1 = 0.492 | 711.06
377.41 K, 79760 kPa, x1 = 0.4 | 760.91
377.41 K, 79760 kPa, x1 = 0.8992 | 760.91
377.41 K, 84740 kPa, x1 = 0.4 | 764.58
377.41 K, 84740 kPa, x1 = 0.8992 | 764.58
377.41 K, 89720 kPa, x1 = 0.4 | 768.12
377.41 K, 89720 kPa, x1 = 0.8992 | 768.12
377.41 K, 94700 kPa, x1 = 0.4 | 771.53
377.41 K, 94700 kPa, x1 = 0.8992 | 771.53
377.41 K, 99670 kPa, x1 = 0.4 | 774.85
377.41 K, 99670 kPa, x1 = 0.8992 | 774.85
377.41 K, 104650 kPa, x1 = 0.4 | 778.05
377.41 K, 104650 kPa, x1 = 0.8992 | 778.05
377.41 K, 109630 kPa, x1 = 0.4 | 781.18
377.41 K, 109630 kPa, x1 = 0.8992 | 781.18
377.41 K, 114600 kPa, x1 = 0.4 | 784.19
377.41 K, 114600 kPa, x1 = 0.8992 | 784.19
377.41 K, 114850 kPa, x1 = 0.492 | 736.23
377.41 K, 119570 kPa, x1 = 0.4 | 787.15
377.41 K, 119570 kPa, x1 = 0.8992 | 787.15
377.41 K, 124540 kPa, x1 = 0.4 | 790.02
377.41 K, 124540 kPa, x1 = 0.8992 | 790.02
377.41 K, 129820 kPa, x1 = 0.4 | 793
377.41 K, 129820 kPa, x1 = 0.8992 | 793
387.3 K, 19850 kPa, x1 = 0.611 | 656.37
387.31 K, 1350 kPa, x1 = 0.611 | 620.65
387.31 K, 4850 kPa, x1 = 0.611 | 628.99
387.31 K, 9850 kPa, x1 = 0.611 | 639.33
387.31 K, 14880 kPa, x1 = 0.611 | 648.36
387.31 K, 39860 kPa, x1 = 0.611 | 682.12
387.31 K, 49860 kPa, x1 = 0.611 | 692.49
387.31 K, 54850 kPa, x1 = 0.611 | 697.23
387.31 K, 64910 kPa, x1 = 0.611 | 706.07
387.31 K, 84880 kPa, x1 = 0.611 | 721.4

Source: the NIST ThermoML archive (doi:10.1016/j.fluid.2010.10.028)
